Assay results: patent US9463338B2, “Derivatives of the sinapinic acid” (PHARMASYNTHESE, priority 2013, dated 2016)
Several values for one entry are separate records, joined by “and”; a condition that tells them apart may be missing. Identical values can stand only once. Marks after values point to notes of the source that are not given here.

What was measured:
[1] = tested on: normal human dermal fibroblasts; test: Production of type I pro-collagen in monolayer cultures of normal human dermal fibroblasts (E.I.A.); type: cell-based; conditions: 48 hours; for Procollagen Difference (%): vs DMSO
Experimental: (§1) The test system consists of monolayers of adult normal human dermal fibroblasts obtained by cultivating cells collected from a tummy tuck carried out on a person.
The used reference activator is the Transforming Growth Factor β (TGF-β) at 1 ng/ml. […]
(§2) The compound to be tested is solubilized in 1 mg/ml in DMSO, then diluted in the cells incubation medium, with a constant concentration of 0.1% (v/v) in DMSO.
Upon completion of the incubation period, the type I pro-collagen contained in the fibroblasts incubation media has been quantified using a sensitive and specific E.I.A. kit.
Upon completion of the incubation period, the proteins contained in the cellular lysates have been quantified by a spectrophotometric method (Bradford method—Bradford M. (1976) Anal. Biochem., 72, 248-254).
(§3) The statistical significance of the differences that have been observed between the <<Control>> and the <<reference product>> conditions, has been assessed through a Student test. The statistical significance of the differences that have been observed between the <<Check>> and the <<test products>> conditions, has been assessed through a one-way analysis of variance (One Way ANOVA) followed by a Holm-Sidak test (*:p<0.05).
The results are given in the form of μg of type I pro-collagen per mg of protein (average+/− the standard deviation, S.D.) and are reported in the following Table 5.

[2] = tested on: normal human dermal fibroblasts; test: Production of progerin in monolayer cultures of normal human dermal fibroblasts (ELISA); type: cell-based; conditions: for Progerin % DMSO / Progerin Average / Progerin, individual values / Progerin Difference (%): 96 hours; for Progerin Difference (%): vs DMSO; for neo synthesis of progerin: under the retained experimental conditions
Text: In order to study the influence of the compounds of the invention on the concentration of progerin in the cells, the assay method described by C. Verdy, J.-E. Branka and N. Mekideche in <<Quantitative assessment of lactate and progerine production in normal human cutaneous cells during normal ageing: effect of an alaria esculenta extract>>, Int. J. Cosmetic Science, 2011, 1-5, has been used.
as §1
Insulin at 10 nM has been used as a reference product in this study. […]
as §2
Upon completion of the incubation period, on the one hand, the progerin has been quantified in the cellular lysates (obtained by ultrasonic action) through a sensitive and specific ELISA assay, and on the other hand, the proteins that are contained in the cellular lysates have been quantified by a spectrophotometric method (Bradford method—Bradford M. (1976) Anal. Biochem., 72, 248-254).
as §3

COc1cc(/C=C/C(=O)OCCc2ccc(OC(C)=O)cc2)cc(OC)c1OC(C)=O [Compound 1, 4-acetoxy-3,5-dimethoxy cinnamate of 2-(4-acetoxyphenyl)-ethyl]
melting point: 132 °C

COc1cc(/C=C/C(=O)Oc2coc(CO)cc2=O)cc(OC)c1OC(C)=O [Compound 10]
Procollagen % DMSO ([1]; 10 ng/ml): 104.6% | Procollagen Average ([1]; 10 ng/ml): 54.9 pg/mg of protein | Procollagen, individual values ([1]; 10 ng/ml): 45.6 pg/mg of protein and 48.7 pg/mg of protein and 70.3 pg/mg of protein | Procollagen Difference (%) ([1]; 10 ng/ml): 4.6% | Procollagen % DMSO ([1]; 100 ng/ml): 150.2% | Procollagen Average ([1]; 100 ng/ml): 78.8* pg/mg of protein | Procollagen, individual values ([1]; 100 ng/ml): 74.0 pg/mg of protein and 75.9 pg/mg of protein and 86.4 pg/mg of protein | Procollagen Difference (%) ([1]; 100 ng/ml): 50.2% | Procollagen % DMSO ([1]; 500 ng/ml): 175.3% | Procollagen Average ([1]; 500 ng/ml): 91.9* pg/mg of protein | Procollagen, individual values ([1]; 500 ng/ml): 90.6 pg/mg of protein and 95.4 pg/mg of protein and 89.8 pg/mg of protein | Procollagen Difference (%) ([1]; 500 ng/ml): 75.3% | Progerin % DMSO ([2]; 50 ng/ml): 23.8% | Progerin Average ([2]; 50 ng/ml): 264.1* ng/mg of protein | Progerin, individual values ([2]; 50 ng/ml): 274.9 ng/mg of protein and 225.1 ng/mg of protein and 292.3 ng/mg of protein | Progerin Difference (%) ([2]; 50 ng/ml): −76.2% | Progerin % DMSO ([2]; 500 ng/ml): 26.1% | Progerin Average ([2]; 500 ng/ml): 289.6* ng/mg of protein | Progerin, individual values ([2]; 500 ng/ml): 301.7 ng/mg of protein and 296.1 ng/mg of protein and 271.0 ng/mg of protein | Progerin Difference (%) ([2]; 500 ng/ml): −73.9% | Progerin % DMSO ([2]; 5000 ng/ml): 26.2% | Progerin Average ([2]; 5000 ng/ml): 291.4* ng/mg of protein | Progerin, individual values ([2]; 5000 ng/ml): 261.2 ng/mg of protein and 245.9 ng/mg of protein and 366.9 ng/mg of protein | Progerin Difference (%) ([2]; 5000 ng/ml): −73.8% | neo synthesis of progerin [2]: significantly decrease

COc1cc(/C=C/C(=O)Oc2cc(C)ccc2C(C)C)cc(OC)c1OC(C)=O [Compound 8, 4-acetoxy-3,5-dimethoxy cinnamate of 2-isopropyl-5-methyl phenyl]
melting point: 143 °C

COc1cc(/C=C/C(=O)Oc2ccc(CCO)cc2)cc(OC)c1OC(C)=O [Compound 2]
Progerin % DMSO ([2]; 10 ng/ml): 25.8% | Progerin Average ([2]; 10 ng/ml): 286.9* ng/mg of protein | Progerin, individual values ([2]; 10 ng/ml): 233.7 ng/mg of protein and 353.5 ng/mg of protein and 273.6 ng/mg of protein | Progerin Difference (%) ([2]; 10 ng/ml): −74.2% | Progerin % DMSO ([2]; 100 ng/ml): 23.1% | Progerin Average ([2]; 100 ng/ml): 256.4* ng/mg of protein | Progerin, individual values ([2]; 100 ng/ml): 170.6 ng/mg of protein and 196.3 ng/mg of protein and 402.4 ng/mg of protein | Progerin Difference (%) ([2]; 100 ng/ml): −76.9% | Progerin % DMSO ([2]; 500 ng/ml): 26.4% | Progerin Average ([2]; 500 ng/ml): 293* ng/mg of protein | Progerin, individual values ([2]; 500 ng/ml): 300.1 ng/mg of protein and 328.4 ng/mg of protein and 250.5 ng/mg of protein | Progerin Difference (%) ([2]; 500 ng/ml): −73.6% | neo synthesis of progerin [2]: significantly decrease
